From patent US20060041123A1, “Antibacterial agents” (priority 2002, published 2006)
Structures can show the parent of a compound that is named as a salt. Where two headings read alike, the source gives them in different places.

Assay: Antimicrobial activity assay: whole-cell MIC by broth microdilution (NCCLS M7-A6)
Type: cell-based
Description: Whole-cell antimicrobial activity was determined by broth microdilution using the National Committee for Clinical Laboratory Standards (NCCLS) recommended procedure, Document M7-A6, “Methods for Dilution Susceptibility Tests for Bacteria that Grow Aerobically”. The compounds were tested in serial two-fold dilutions ranging from 0.016 to 16 mcg/mL. Compounds were evaluated against a panel of Gram-positive organisms, including Staphylococcus aureus WCUH29, Streptococcus pneumoniae 1629, Streptococcus pyogenes CN 10, and Enterococcus faecalis 2. In addition, compounds were evaluated against a panel of Gram-negative strains including Haemophilus influenzae NEMC1, E. coli 7623, and Moraxella catarrhalis Ravasio. The minimum inhibitory concentration (MIC) was determined as the lowest concentration of compound that inhibited visible growth. A mirror reader was used to assist in determining the MIC endpoint.
Compounds of the present invention have MIC's ≦20 μg/ml versus all the organisms named above.

[1] = versus all the organisms named above (S. aureus WCUH29, S. pneumoniae 1629, S. pyogenes CN 10, E. faecalis 2, H. influenzae NEMC1, E. coli 7623, M. catarrhalis Ravasio), read-out: MIC

Compound | MIC [1] | MIC
COc1ccc2ncc(Cl)c(CCN3CC[C@H](NCc4ccc5c(n4)NC(=O)CS5)[C@H](O)C3)c2n1.Cl.Cl (single isomer, unassigned; enantiomer 1) [Example 11, 6-({(cis)-1-[2-(3-Chloro-6-methoxy-[1,5]naphthyridin-4-yl)-ethyl]-3-hydroxy-piperidin-4-ylamino}-methyl)-4H-pyrido[3,2-b][1,4]thiazin-3-one Dihydrochloride Enantiomer 1] | ≤ 2 µg/mL | –
COc1cc(F)c2ncc(Cl)c(CCN3CC[C@H](NCc4cc5c(cn4)OCCO5)[C@H](O)C3)c2c1.Cl.Cl [Example 98, (3R,4S)-1-{2-[3-chloro-8-fluoro-6-(methoxy)-4-quinolinyl]ethyl}-4-[(2,3-dihydro[1,4]dioxino[2,3-c]pyridin-7-ylmethyl)amino]-3-piperidinol dihydrochloride] | ≤ 2 µg/mL | –
COc1cc(F)c2ncc(F)c(CCN3CC[C@H](NCc4ccc5c(n4)NC(=O)CS5)[C@H](O)C3)c2c1.Cl.Cl (single isomer, unassigned; enantiomer 1) [Example 73] | ≤ 2 µg/mL | –
COc1ccc2ncc(Cl)c(CCN3CC[C@@H](NCc4ccc5c(n4)NC(=O)CS5)[C@H](O)C3)c2n1.Cl.Cl (single isomer, unassigned; enantiomer 2) [Example 39, (trans)-6-({1-[2-(3-Chloro-6-methoxy-[1,5]naphthyridin-4-yl)-ethyl]-3-hydroxy-piperidin-4-ylamino}-methyl)-4H-pyrido[3,2-b][1,4]-thiazin-3-one Dihydrochloride Enantiomer 2] | ≤ 2 µg/mL | –
COc1ccc2ncc(F)c(CCN3CCC(NCc4cc5c(cn4)OCCS5)CC3)c2c1.Cl.Cl [Example 86, N-(2,3-dihydro[1,4]oxathiino[2,3-c]pyridin-7-ylmethyl)-1-{2-[3-fluoro-6-(methoxy)-4-quinolinyl]ethyl}-4-piperidinamine dihydrochloride] | ≤ 2 µg/mL | –
COc1ccc2ncc(Cl)c(CCN3CC[C@H](NCc4ccc5c(n4)NC(=O)CO5)[C@H](O)C3)c2c1 (single isomer, unassigned; enantiomer 2) [Example 6, 6-({(cis)-1-[2-(3-Chloro-6-methoxy-quinolin-4-yl)-ethyl]-3-hydroxy-piperidin-4-ylamino}-methyl)-4H-pyrido[3,2-b][1,4]oxazin-3-one Dihydrochloride Enantiomer 2] | ≤ 2 µg/mL | –
Cl.Cl.O=C1CSc2ccc(CNC3CCN(CCc4c(F)cnc5ccc(F)cc45)CC3)nc2N1 [Example 106, 6-[({1-[2-(3,6-difluoro-4-quinolinyl)ethyl]-4-piperidinyl}amino)methyl]-2H-pyrido[3,2-b][1,4]thiazin-3(4H)-one dihydrochloride] | ≤ 2 µg/mL | –
COc1ccc2ncc(F)c(CCN3CCC(NCc4cc5c(cn4)OCCO5)CC3)c2c1.Cl.Cl [Example 32, {1-[2-(3-Fluoro-6-methoxy-quinolin-4-yl)-ethyl]-piperidin-4-yl}-(2,3-dihydro-[1,4]dioxino[2,3-c]pyridin-7-ylmethyl)-amine dihydrochloride] | ≤ 2 µg/mL | –
COc1ccc2ncc(Cl)c(CCN3CCC(CO)(NCc4ccc5c(n4)NC(=O)CS5)CC3)c2c1.Cl.Cl [Example 21, 6-({1-[2-(3-Chloro-6-methoxyquinolin-4-yl)ethyl]4-hydroxymethylpiperidin-4-ylamino}methyl)-4H-pyrido[3,2-b][1,4]thiazin-3-one Dihydrochloride] | ≤ 2 µg/mL | –
COc1cc(F)c2ncc(F)c(CCN3CCC(NCc4cc5c(cn4)OCCO5)CC3)c2c1.Cl.Cl [Example 47, 1-{2-[3,8-difluoro-6-(methoxy)-4-quinolinyl]ethyl}-N-(2,3-dihydro[1,4]dioxino[2,3-c]pyridin-7-ylmethyl)-4-piperidinamine dihydrochloride] | ≤ 2 µg/mL | –
Cl.Cl.Clc1cnc2ccc3c(c2c1CCN1CCC(NCc2cc4c(cn2)OCCO4)CC1)OCCO3 [Example 52, {1-[2-(9-Chloro-2,3-dihydro-[1,4]dioxino[2,3-f]quinolin-10-yl)-ethyl]-piperidin-4-yl}-(2,3-dihydro-[1,4]dioxino[2,3-c]pyridin-7-ylmethyl)-amine dihydrochloride] | ≤ 2 µg/mL | –
COc1ccc2ncc(F)c(CCN3CCC(C)(NCc4cc5c(cn4)OCCO5)CC3)c2n1.Cl.Cl [Example 140, N-(2,3-dihydro[1,4]dioxino[2,3-c]pyridin-7-ylmethyl)-1-{2-[3-fluoro-6-(methoxy)-1,5-naphthyridin-4-yl]ethyl}-4-methyl-4-piperidinamine dihydrochloride] | ≤ 2 µg/mL | –
COc1ccc2ncc(F)c(CCN3CCC(NCc4cc5c(cn4)OCS5)CC3)c2n1.Cl.Cl [Example 61, 1-{2-[3-Fluoro-6-(methoxy)-1,5-naphthyridin-4-yl]ethyl}-N-([1,3]oxathiolo[5,4-c]pyridin-6-ylmethyl)-4-piperidinamine dihydrochloride] | ≤ 2 µg/mL | –
COc1ccc2ncc(F)c(CCN3CC[C@@H](NCc4cc5c(cn4)OCCO5)[C@H](O)C3)c2c1.Cl.Cl (relative stereo) [Example 117, trans-4-[(2,3-dihydro[1,4]dioxino[2,3-c]pyridin-7-ylmethyl)amino]-1-{2-[3-fluoro-6-(methoxy)-4-quinolinyl]ethyl}-3-piperidinol dihydrochloride] | ≤ 2 µg/mL | –
COc1cc(F)c2ncc(F)c(CCN3CC[C@H](NCc4cc5c(cn4)OCCO5)[C@H](F)C3)c2c1.Cl.Cl (single isomer, unassigned; enantiomer 2) [Example 144, cis-1-{2-[3,8-difluoro-6-(methoxy)-4-quinolinyl]ethyl}-N-(2,3-dihydro[1,4]dioxino[2,3-c]pyridin-7-ylmethyl)-3-fluoro-4-piperidinamine dihydrochloride Enantiomer 2] | ≤ 2 µg/mL | –
COc1ccc2ncc(F)c(CCN3CCC(C)(NCc4ccc5c(n4)NC(=O)CO5)CC3)c2n1.Cl.Cl [Example 138, 6-{[(1-{2-[3-fluoro-6-(methoxy)-1,5-naphthyridin-4-yl]ethyl}-4-methyl-4-piperidinyl)amino]methyl}-2H-pyrido[3,2-b][1,4]oxazin-3(4H)-one dihydrochloride] | ≤ 2 µg/mL | –
COc1ccc2ncc(F)c(CCN3CCC(NCc4ccc5c(n4)NC(=O)CS5)CC3)c2c1.Cl.Cl [Example 31, 6-({1-[2-(3-Fluoro-6-methoxyquinolin-4-yl)ethyl]piperidin-4-ylamino}methyl)-4H-pyrido[3,2-b][1,4]thiazin-3-one dihydrochloride] | ≤ 2 µg/mL | –
COc1ccc2ncc(Cl)c(CCN3CC[C@@H](NCc4cc5c(cn4)OCCO5)[C@H](O)C3)c2n1 (single isomer, unassigned; enantiomer 1) [Example 154, trans-1-{2-[3-chloro-6-(methoxy)-1,5-naphthyridin-4-yl]ethyl}-4-[(2,3-dihydro[1,4]dioxino[2,3-c]pyridin-7-ylmethyl)amino]-3-piperidinol Enantiomer 1] | ≤ 2 µg/mL | –
COc1ccc2ncc(Cl)c(CCN3CCC(NCc4cc5c(cn4)OCCO5)CC3)c2n1.Cl.Cl [Example 3, {1-[2-(3-Chloro-6-methoxy-[1,5]naphthyridin-4-yl)-ethyl]-piperidin-4-yl}-(2,3-dihydro-[1,4]dioxino[2,3-c]pyridin-7-ylmethyl)-amine Dihydrochloride] | ≤ 2 µg/mL | –
COc1ccc2ncc(F)c(CCN3CCC(C)(NCc4ccc5c(n4)NC(=O)CS5)CC3)c2n1.Cl.Cl [Example 139, 6-{[(1-{2-[3-fluoro-6-(methoxy)-1,5-naphthyridin-4-yl]ethyl}-4-methyl-4-piperidinyl)amino]methyl}-2H-pyrido[3,2-b][1,4]thiazin-3(4H)-one dihydrochloride] | ≤ 2 µg/mL | –
Cl.Cl.O=C1CSc2ccc(CNC3CCN(CCc4c(Cl)cnc5ccc(F)cc45)CC3)nc2N1 [Example 25, 6-({1-[2-(3-Chloro-6-fluoro-quinolin-4-yl)-ethyl]-piperidin-4-ylamino}-methyl)-4H-pyrido[3,2-b][1,4]thiazin-3-one Dihydrochloride] | ≤ 2 µg/mL | –
COc1ccc2ncc(Cl)c(CCN3CC[C@H](NCc4ccc5c(n4)NC(=O)CS5)[C@H](O)C3)c2c1 (single isomer, unassigned; enantiomer 2) [Example 8, 6-({(cis)-1-[2-(3-Chloro-6-methoxy-quinolin-4-yl)-ethyl]-3-hydroxy-piperidin-4-ylamino}-methyl)-4H-pyrido[3,2-b][1,4]thiazin-3-one Dihydrochloride Enantiomer 2] | ≤ 2 µg/mL | –
COc1ccc2ncc(F)c(CCN3CCC(C)(NC(=O)c4ccc5c(n4)NC(=O)CS5)CC3)c2n1 [Example 168, N-(1-{2-[3-fluoro-6-(methoxy)-1,5-naphthyridin-4-yl]ethyl}-4-methyl-4-piperidinyl)-3-oxo-3,4-dihydro-2H-pyrido[3,2-b][1,4]thiazine-6-carboxamide] | ≤ 2 µg/mL | –
COc1ccc2ncc(Cl)c(CCN3CC[C@H](NCc4ccc5c(n4)NC(=O)CO5)[C@H](O)C3)c2n1.Cl.Cl (single isomer, unassigned; enantiomer 2) [Example 10, 6-({(cis)-1-[2-(3-Chloro-6-methoxy-[1,5]naphthyridin-4-yl)-ethyl]-3-hydroxy-piperidin-4-ylamino}-methyl)-4H-pyrido[3,2-b][1,4]oxazin-3-one Dihydrochloride Enantiomer 2] | ≤ 2 µg/mL | –
COc1ccc2ncc(F)c(CCN3CC[C@H](NCc4ccc5c(n4)NC(=O)CO5)[C@H](O)C3)c2n1.Cl.Cl [Example 68, 6-{[((3R,4S)-1-{2-[3-fluoro-6-(methoxy)-1,5-naphthyridin-4-yl]ethyl}-3-hydroxy-4-piperidinyl)amino]methyl}-2H-pyrido[3,2-b][1,4]oxazin-3(4H)-one dihydrochloride] | – | ≤ 2 µg/mL
